The results in this text go back to BindingDB's records for PubMed 34889100 (University of Health Sciences and Pharmacy, 2021).

Broadly, the EC50 is the concentration giving half of the maximal effect. Higher therefore signals weaker potency.

The experiment concerns the target Bile acid receptor NR1H4 (Homo sapiens) (UniProt Q96RI1). The experiment in a line: Agonist activity at FXR in human HepG2 cells.

Chain of Bile acid receptor NR1H4 (Homo sapiens) (Q96RI1 whole entry, looked up): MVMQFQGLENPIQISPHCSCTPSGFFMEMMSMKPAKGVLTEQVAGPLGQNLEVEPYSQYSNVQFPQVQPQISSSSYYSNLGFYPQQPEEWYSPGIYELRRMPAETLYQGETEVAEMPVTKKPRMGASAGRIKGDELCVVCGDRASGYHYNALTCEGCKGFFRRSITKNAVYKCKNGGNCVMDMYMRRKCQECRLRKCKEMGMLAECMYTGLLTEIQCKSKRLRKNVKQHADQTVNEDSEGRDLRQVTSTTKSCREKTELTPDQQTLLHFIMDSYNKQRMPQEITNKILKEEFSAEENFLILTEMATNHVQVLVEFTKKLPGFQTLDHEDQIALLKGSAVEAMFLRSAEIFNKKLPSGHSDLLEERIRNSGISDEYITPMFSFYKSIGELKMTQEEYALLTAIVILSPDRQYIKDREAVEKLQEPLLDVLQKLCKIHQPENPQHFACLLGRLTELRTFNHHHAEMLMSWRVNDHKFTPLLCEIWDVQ

Consider `O=C(O)c1ccc([C@@H]2C[C@H]2c2ccc(OCc3c(-c4c(Cl)cccc4Cl)noc3C3CC3)cc2Cl)cc1`, for which the EC50 is 0.75 nM.

`O=C(O)c1cc(F)c2nc(N3C[C@@H]4C[C@H]3C[C@H]4OCc3c(-c4ccccc4OC(F)(F)F)noc3C3CC3)sc2c1` displayed an EC50 of 0.35 nM.
